These results are taken from US7998938B2, “Cancer treatment by combined inhibition of proteasome and telomerase activities” (Geron Corporation, priority 2005, dated 2011).

Strand notation (5' to 3'): a small letter for the sugar, then the base; units joined by * are phosphorothioate-linked, units joined directly phosphodiester-linked; [ ] holds rarer units or linkages, { } end groups; capitals alone tell only the bases. [NPS] = N3'→P5' thiophosphoramidate internucleoside linkage; [NP] = N3'→P5' phosphoramidate internucleoside linkage; d = 2'-deoxy (DNA)

The test system of the first series is telomerase. In words: Inhibition of telomerase, biochemical (FlashPlate) assay. Details: species or system human. Particulars: NPS linkages unless NP backbone stated.
A word on the IC50: it is the concentration that gives 50% inhibition. A high value points to a need for much substance. “11-mer; truncation of GRN163 sequence: NPS oligonucleotide TAGGGTTAGAC (SEQ ID NO: 15) (DNA, all [NPS], methylation of C not given here)” came in with an IC50 of 0.85 ± 0.35 nM.

“12-mer; truncation of GRN163 sequence: NPS oligonucleotide TAGGGTTAGACA (SEQ ID NO: 14) (DNA, all [NPS], methylation of C not given here)” showed a concentration for half-maximal inhibition (IC50) of 0.36 ± 0.2 nM.

On to “Alternative targeting 11-mer: NPS oligonucleotide GTTAGGGTTAG (SEQ ID NO: 16) (DNA dG[NPS]dT[NPS]dT[NPS]dA[NPS]dG[NPS]dG[NPS]dG[NPS]dT[NPS]dT[NPS]dA[NPS]dG)”, for which the IC50 is 0.51 ± 0.13 nM.

Molecule “Alternative targeting 13-mer: NPS oligonucleotide CAGTTAGGGTTAG (SEQ ID NO: 13), complementary to nucleotides 46-58 of SEQ ID NO: 1 (DNA, all [NPS], methylation of C not given here)” showed a half-inhibitory concentration (IC50) of 0.049 ± 0.007 nM.

“Complement of GRN163 sequence: NPS oligonucleotide TTGTCTAACCCTA (SEQ ID NO: 24) (DNA, all [NPS], methylation of C not given here)” registered an IC50 of 1000 ± 46 nM.

“Duplex of GRN163 sequence: Duplex TAGGGTTAGACAA / ATCCCAATCTGTT (chemistry not fully specified; one strand is listed 3' to 5')”: the IC50 was determined as 8.9 ± 3 nM.

The molecule “Mismatch of GRN163 sequence with NP backbone: TAGGTGTAAGCAA with NP backbone (DNA, all [NP], methylation of C not given here)” gave an IC50 greater than 1000 nM.

“Mismatch of GRN163 sequence: NPS oligonucleotide TAGGTGTAAGCAA (SEQ ID NO: 23) (DNA, all [NPS], methylation of C not given here)” had an IC50 of 80 ± 31 nM.

“Mismatch of alternative targeting 11-mer: NPS oligonucleotide GTTGAGTGTAG (SEQ ID NO: 25) (DNA dG[NPS]dT[NPS]dT[NPS]dG[NPS]dA[NPS]dG[NPS]dT[NPS]dG[NPS]dT[NPS]dA[NPS]dG)” displayed an IC50 of 177 ± 93 nM.

Take “Oligo-T 10-mer: Oligonucleotide TTTTTTTTTT (SEQ ID NO: 27)”: the IC50 was greater than 1000 nM.

Molecule “Telomere repeat unit: Oligonucleotide TTAGGG (SEQ ID NO: 26)” yielded an IC50 greater than 1000 nM.

The test system of a further series is CAG MM cell line.
Experiment: not given
The note with it: Group 4, intravenous 0.25 mg/kg; p<0.01. Format: in vivo, NOD/SCID mice. Here is the method:
The CAG MM cell line (telomere length 2.7 Kb) was transfected with a retroviral vector encoding a triple fusion gene for HSV-TK, firefly luciferase and green fluorescence protein, and whole animal bioluminescence imaging was undertaken in a disseminated NOD/SCID model with extensive spinal cord and bone marrow tumor infiltration. NOD/SCID mice were not irradiated with gamma ray before cell implantation. […] Bortezomib was administered intravenously at a dose of 0.25 mg/kg (Table 1).
The results are discussed in Section IVA above, with reference to FIGS. 4A-B.
On to `CC(C)C[C@H](NC(=O)[C@H](Cc1ccccc1)NC(=O)c1cnccn1)B(O)O` [bortezomib], for which the “survival relative to PBS controls” value is listed as “significant increase”.
